Laboratory results taken from ChEMBL document CHEMBL1147331, “Cytotoxic and antimalarial bisbenzylisoquinoline alkaloids from Stephania erecta” (J Nat Prod, 1993).
In brackets after ≈: the same amount, converted by molar mass.

What was measured:
[1] = Selectivity index, ratio of ED50 for human MEL2 cells to ED50 for chloroquine-resistant Plasmodium falciparum W2; type: toxicity, cell-based; conditions: read-out: Ratio ED50
Plasmodium falciparum [2] = experiment: Antimalarial activity after 24 hrs against chloroquine-sensitive Plasmodium falciparum D6 infected type A+ human erythrocytes by [3H]hypoxanthine uptake; type: functional; conditions: read-out: ED50 (the source's name)
in vitro [3] = conditions: mouse, P388 cells
Description: Selectivity index, ratio of ED50 for mice (Mus musculus) P388 cells to ED50 for chloroquine-resistant Plasmodium falciparum W2

[4] = Cytotoxicity against human LUC1 cells after 3 days by sulforhodamine B assay; type: cell-based; conditions: read-out: ED50
[5] = Selectivity index, ratio of ED50 for human LUC1 cells to ED50 for chloroquine-resistant Plasmodium falciparum W2; type: toxicity, cell-based; conditions: read-out: Ratio ED50
[6] = Selectivity index, ratio of ED50 for human COL1 cells to ED50 for chloroquine-sensitive Plasmodium falciparum D6; type: toxicity, cell-based; conditions: read-out: Ratio ED50
[7] = Selectivity index, ratio of ED50 for human KB cells to ED50 for chloroquine-sensitive Plasmodium falciparum D6; type: toxicity, cell-based; conditions: read-out: Ratio ED50
in vitro [8] = conditions: mouse, P388 cells; remark: listed apart in the source
Description: Selectivity index, ratio of ED50 for mice (Mus musculus) P388 cells to ED50 for chloroquine-sensitive Plasmodium falciparum D6

[9] = Cytotoxicity against human KBV1 cells after 3 days by sulforhodamine B assay; type: cell-based, KB-V1; conditions: read-out: ED50
[10] = Selectivity index, ratio of ED50 for human BCA1 cells to ED50 for chloroquine-sensitive Plasmodium falciparum D6; type: toxicity, cell-based; conditions: read-out: Ratio ED50
[11] = Cytotoxicity against mouse P388 cells after 2 days by sulforhodamine B assay; type: cell-based; conditions: read-out: ED50
[12] = Cytotoxicity against human A431 cells after 3 days by sulforhodamine B assay; type: cell-based, A-431; conditions: read-out: ED50
[13] = Cytotoxicity against human SK-MEL-2 cells after 3 days by sulforhodamine B assay; type: cell-based; conditions: read-out: ED50
[14] = Selectivity index, ratio of ED50 for human LNCaP cells to ED50 for chloroquine-resistant Plasmodium falciparum W2; type: toxicity, cell-based; conditions: read-out: Ratio ED50
[15] = Cytotoxicity against human Col1 cells after 3 days by sulforhodamine B assay; type: cell-based; conditions: read-out: ED50
[16] = Selectivity index, ratio of ED50 for human HT1080 cells to ED50 for chloroquine-sensitive Plasmodium falciparum D6; type: toxicity, cell-based, HT-1080; conditions: read-out: Ratio ED50
[17] = Selectivity index, ratio of ED50 for human KB-V1 cells to ED50 for chloroquine-resistant Plasmodium falciparum W2; type: toxicity, cell-based; conditions: read-out: Ratio ED50
[18] = Selectivity index, ratio of ED50 for human ZR-75-1 cells to ED50 for chloroquine-sensitive Plasmodium falciparum D6; type: toxicity, cell-based; conditions: read-out: Ratio ED50
[19] = Selectivity index, ratio of ED50 for human KB cells to ED50 for chloroquine-resistant Plasmodium falciparum W2; type: toxicity, cell-based; conditions: read-out: Ratio ED50
[20] = Cytotoxicity against human HT1080 cells after 3 days by sulforhodamine B assay; type: cell-based, HT-1080; conditions: read-out: ED50
[21] = Cytotoxicity against human BCA1 cells after 3 days by sulforhodamine B assay; type: cell-based; conditions: read-out: ED50
[22] = Cytotoxicity against human ZR-75-1 cells after 3 days by sulforhodamine B assay; type: cell-based; conditions: read-out: ED50
[23] = Selectivity index, ratio of ED50 for human HT1080 cells to ED50 for chloroquine-resistant Plasmodium falciparum W2; type: toxicity, cell-based, HT-1080; conditions: read-out: Ratio ED50
[24] = Selectivity index, ratio of ED50 for human KB-V1 cells to ED50 for chloroquine-sensitive Plasmodium falciparum D6; type: toxicity, cell-based; conditions: read-out: Ratio ED50
in vitro [25] = conditions: human, A431 cells
Description: Selectivity index, ratio of ED50 for human A431 cells to ED50 for chloroquine-sensitive Plasmodium falciparum D6

[26] = Selectivity index, ratio of ED50 for human BCA1 cells to ED50 for chloroquine-resistant Plasmodium falciparum W2; type: toxicity, cell-based; conditions: read-out: Ratio ED50
Plasmodium falciparum [27] = experiment: Antimalarial activity after 24 hrs against chloroquine-resistant Plasmodium falciparum W2 infected type A+ human erythrocytes by [3H]hypoxanthine uptake; type: functional; conditions: read-out: ED50 (the source's name)
[28] = Selectivity index, ratio of ED50 for human MEL2 cells to ED50 for chloroquine-sensitive Plasmodium falciparum D6; type: toxicity, cell-based; conditions: read-out: Ratio ED50
[29] = Cytotoxicity against human KB cells after 3 days by sulforhodamine B assay; type: cell-based; conditions: read-out: ED50
[30] = Selectivity index, ratio of ED50 for human LUC1 cells to ED50 for chloroquine-sensitive Plasmodium falciparum D6; type: toxicity, cell-based; conditions: read-out: Ratio ED50
[31] = Selectivity index, ratio of ED50 for human LNCaP cells to ED50 for chloroquine-sensitive Plasmodium falciparum D6; type: toxicity, cell-based; conditions: read-out: Ratio ED50
[32] = Selectivity index, ratio of ED50 for human COL1 cells to ED50 for chloroquine-resistant Plasmodium falciparum W2; type: toxicity, cell-based; conditions: read-out: Ratio ED50
[33] = Cytotoxicity against human LNCAP cells after 3 days by sulforhodamine B assay; type: cell-based; conditions: read-out: ED50
[34] = Selectivity index, ratio of ED50 for human ZR-75-1 cells to ED50 for chloroquine-resistant Plasmodium falciparum W2; type: toxicity, cell-based; conditions: read-out: Ratio ED50
in vitro [35] = conditions: human, A431 cells; remark: listed apart in the source
Description: Selectivity index, ratio of ED50 for human A431 cells to ED50 for chloroquine-resistant Plasmodium falciparum W2

Row | SMILES | selectivity ratio [1] | EC50 (Plasmodium falciparum [2]) [µg/mL] | selectivity ratio (in vitro [3]) | CC50 at 72 h [4] [µg/mL] | selectivity ratio [5] | selectivity ratio [6] | selectivity ratio [7] | selectivity ratio (in vitro [8]) | CC50 at 72 h [9] [µg/mL] | selectivity ratio [10] | CC50 at 48 h [11] [µg/mL] | CC50 at 72 h [12] [µg/mL] | CC50 at 72 h [13] [µg/mL] | selectivity ratio [14] | CC50 at 72 h [15] [µg/mL] | selectivity ratio [16] | selectivity ratio [17] | selectivity ratio [18] | selectivity ratio [19] | CC50 at 72 h [20] [µg/mL] | further results
1 | COc1ccc2cc1Oc1ccc(cc1)C[C@H]1c3c(cc(OC)c4c3Oc3cc5c(cc3O4)CCN=C5C2)CCN1C | 39 | 0.307 (≈ 0.547 µM) | 12 | 1.7 (≈ 3.03 µM) | 7 | 16 | 9 | 10 | 6.8 (≈ 12.1 µM) | 15 | 3.1 (≈ 5.53 µM) | 6 (≈ 10.7 µM) | 9.9 (≈ 17.7 µM) | 8 | 5 (≈ 8.92 µM) | 7 | 27 | 2 | 11 | 2.1 (≈ 3.75 µM) | CC50 at 72 h [21]: 4.6 µg/mL (≈ 8.2 µM); CC50 at 72 h [22]: 0.7 µg/mL (≈ 1.25 µM); selectivity ratio [23]: 8; selectivity ratio [24]: 22; selectivity ratio (in vitro [25]): 20; selectivity ratio [26]: 18; EC50 (Plasmodium falciparum [27]): 0.256 µg/mL (≈ 0.457 µM); selectivity ratio [28]: 32; CC50 at 72 h [29]: 2.8 µg/mL (≈ 4.99 µM); selectivity ratio [30]: 6; selectivity ratio [31]: 7; selectivity ratio [32]: 20; CC50 at 72 h [33]: 2 µg/mL (≈ 3.57 µM); selectivity ratio [34]: 3; selectivity ratio (in vitro [35]): 23
2 | COc1ccc2cc1Oc1ccc(cc1)C[C@H]1c3cc(c(OC)cc3CCN1C)Oc1c(OC)c(OC)cc3c1[C@@H](C2)NCC3 | 181 | 0.0661 (≈ 0.109 µM) | 104 | 9.8 (≈ 16.1 µM) | 216 | 115 | 95 | 71 | 2.8 (≈ 4.6 µM) | 67 | 4.7 (≈ 7.72 µM) | 4.7 (≈ 7.72 µM) | 8.2 (≈ 13.5 µM) | 91 | 7.6 (≈ 12.5 µM) | 114 | 62 | 27 | 139 | 7.5 (≈ 12.3 µM) | CC50 at 72 h [21]: 4.4 µg/mL (≈ 7.23 µM); CC50 at 72 h [22]: 1.8 µg/mL (≈ 2.96 µM); selectivity ratio [23]: 166; selectivity ratio [24]: 42; selectivity ratio (in vitro [25]): 71; selectivity ratio [26]: 97; EC50 (Plasmodium falciparum [27]): 0.0453 µg/mL (≈ 0.0744 µM); selectivity ratio [28]: 124; CC50 at 72 h [29]: 6.3 µg/mL (≈ 10.3 µM); selectivity ratio [30]: 148; selectivity ratio [31]: 62; selectivity ratio [32]: 168; CC50 at 72 h [33]: 4.1 µg/mL (≈ 6.74 µM); selectivity ratio [34]: 40; selectivity ratio (in vitro [35]): 104
3 | COc1ccc2cc1Oc1ccc(cc1)C[C@H]1c3c(cc(OC)c(O)c3Oc3cc4c(cc3OC)CCN(C)[C@@H]4C2)CCN1C [HOMOAROMOLINE] | 31 | 0.105 (≈ 0.172 µM) | 13 | 8.6 (≈ 14.1 µM) | 34 | 96 | 60 | 35 | 3.1 (≈ 5.09 µM) | 34 | 3.7 (≈ 6.08 µM) | 8.9 (≈ 14.6 µM) | 9 (≈ 14.8 µM) | 12 | 10 (≈ 16.4 µM) | 86 | 11 | 19 | 22 | 9 (≈ 14.8 µM) | CC50 at 72 h [21]: 3.6 µg/mL (≈ 5.91 µM); CC50 at 72 h [22]: 1.2 µg/mL (≈ 1.97 µM); selectivity ratio [23]: 31; selectivity ratio [24]: 30; selectivity ratio (in vitro [25]): 85; selectivity ratio [26]: 13; EC50 (Plasmodium falciparum [27]): 0.288 µg/mL (≈ 0.474 µM); selectivity ratio [28]: 86; CC50 at 72 h [29]: 6.3 µg/mL (≈ 10.3 µM); selectivity ratio [30]: 93; selectivity ratio [31]: 33; selectivity ratio [32]: 35; CC50 at 72 h [33]: 3.4 µg/mL (≈ 5.59 µM); selectivity ratio [34]: 7; selectivity ratio (in vitro [35]): 31
